Experimental data published in patent publication US5124253A (Medisense, Inc., priority 1988, dated 1992).
“And” between values parts separate entries of the source, which are not always exact repeats. Equal values may be shown once.

Assays:
[1] = cyclic voltammetry of substrate and product; type: physicochemical
Excerpt: Typically, in the test element, the enzyme and the substrate are in separate carbon-based layers. The respective carbon mixtures are applied to a conductive track of a support, for example in the close proximity of a reference electrode mixture connected to a second track. In this way, a miniaturized sensor is produced which is capable of working with a small sample of blood bridging the electrode areas. The mixtures are suitably applied by screen printing. Suitable enzymes and suitable substrates can be determined by routine experimentation. Bovine liver alkaline phosphatase is the preferred enzyme, and p-aminophenyl phosphate is the preferred substrate. Other candidate substrates include, for example naphthyl phosphate, and 4-ferrocenylaminophenyl phosphate. […] Furthermore the electrochemistry of p-aminophenol is in a potential region where there would be minimal interference from endogenous blood components.
Cyclic voltammograms of p-aminophenyl phosphate before and after incubation with alkaline phosphatase are shown in FIGS. 3 and 4, the lower voltammogram corresponding to post-incubation.

[2] = tested on: bovine liver alkaline phosphatase; conditions: particularly isozyme from bovine liver; cited from earlier work
[3] = cited from earlier work

| SMILES | E°' of reversible wave [1] | inhibition of alkaline phosphatase isozymes [2] | levels encountered in cases of toxicity [3] |
| --- | --- | --- | --- |
| Nc1ccc(O)cc1 [p-aminophenol] | about -65 mV | – | – |
| Cn1c(=O)c2[nH]cnc2n(C)c1=O [theophylline] | – | very potent inhibitor | ≤ 60 μg/ml and ≤ 330 μM |
